Several values for one entry are separate records, joined by “and”; a condition that tells them apart may be missing. Identical values can stand only once.
Legend:
[1] = Body weights, weight gain and food consumption over 14 days after single i.v. dose; format: in vivo, Sprague-Dawley rats; conditions: for day 1 B.W. / day 2 B.W. / day 3 B.W. / day 4 B.W. / day 5 B.W. / day 6 B.W. / day 7 B.W. / day 8 B.W. / day 9 B.W. / day 11 B.W. / day 12 B.W. / day 13 B.W. / day 14 B.W. / day 10 B.W.: individual rats
Method: Body weight and food consumption was measured daily for 14 days. On day 15, urine was collected on all surviving animals. The animals were euthanized and bled via cardiac puncture, and blood was collected for analysis. Tissues were collected, weighed, evaluated for gross abnormalities, and stored in 10% neutral-buffered formalin.
All animals were observed daily.

[2] = target: T1, nAChR α4/β2 (Homo sapiens, UniProt P17787+P43681); assay: nAChR α4/β2 channel agonist assay (FLIPR membrane potential); format: cell-based; conditions: 0.3-1000 μM
T1 construct: host or cells: HEK293 cells, transient transfection
Method: The following three (3) channels were evaluated: • 1. nAChR α3/β4 (encoded by the human CHRNA3 and CHRNB4 gene and stably expressed in CHO cells); • 2. nAChR α4/β2 (CHRNA4 and CHRNB2 gene and transiently expressed in HEK293 cells); and • 3. nAChR α7 (encoded by the human nicotinic α7 gene coexpressed in CHO cells with the chaperone RIC-3 encoded by the human RIC3 gene).
The ability of each test article to act as an agonist, a positive allosteric modulator or antagonist of three nAChR receptor channels was evaluated in the presence of 0.1 atropine. Both test articles were evaluated for responses on each nAChR channel at eight (8) concentrations: 0.3, 1, 3, 10, 30, 100, 300, and 1000 μM (n=4 for each concentration).
HEK293 or CHO cells were transiently or stably transfected with the appropriate human ion channel cDNAs. Stable transfectants were selected by coexpression with the antibiotic-resistance gene(s) incorporated into the expression plasmid(s). Selection pressure was maintained by including selection antibiotics in the culture medium. HEK293 cells were cultured in Dulbecco's Modified Eagle Medium/Nutrient Mixture F-12 (D-MEM/F-12) supplemented with 10% fetal bovine serum, 100 U/mL penicillin G sodium, 100 g/mL streptomycin sulfate and appropriate selection antibiotics. CHO cells were cultured in Ham's F-12 supplemented with 10% fetal bovine serum, 100 U/mL penicillin G sodium, 100 g/mL streptomycin sulfate and appropriate selection antibiotics.
For FLIPR TETRA™ assay, cells were plated in 384-well black wall, flat clear bottom microtiter plates (Type: BD Biocoat Poly-D-Lysine Multiwell Cell Culture Plate) at 20,000 to 30,000 cells per well (384-well plate). Cells were incubated at 37° C. overnight or until the cells reached a sufficient density in the wells (near confluent monolayer) to use in fluorescence assays. For α4β2 assay, cells were incubated at 27° C. for at least 7 hours before use.
Experiments were performed with either the FLIPR calcium sensitive dye kit (Fluo-8, ABDbioquest, for nAChR α3/β4 and nAChR α7) or FLIPR membrane potential kit (Molecular Devices, for nAChR α4/β2) according to the manufacturer's instructions. Briefly, cells were incubated with 201 dye for 30 min at 37° C. After dye loading period, for the agonist assay, 5 μl of the test, vehicle, or control articles at concentration of 5 times of final concentration were applied to the cells without stimulation. For the positive allosteric modulation (PAM) and antagonist assay, after test article application, the cells were stimulated with either low dose (for PAM) or high dose (for antagonist) of Ach.
Concentration-response data was fitted to a Hill equation of the following form:
where Base is the response at low concentrations of test article, Max is the maximum response at high concentrations, xhalf is the EC50 or IC50, the concentration of test article producing either half-maximal activation or inhibition, and rate is the Hill coefficient. Nonlinear least squares fits were made assuming a simple one-to-one binding model.
The ability of each test article to act as an agonist of the nAChR carried out in the absence of the positive control agonist. The signal elicited in the presence of the positive control agonist (30 μM Ach) was set to 100% and the signal from the vehicle control (HBPS) was set to 0%. Values were considered significant (bold font) if the test article mean was three or more standard deviations above from the vehicle control mean.

[3] = target: nAChR α3/β4 (Homo sapiens, UniProt P30926+P32297); conditions: in presence of 10 μM Ach
[4] = anatabine 0.1 mg/kg single i.v., Male
[5] = anatabine 0.75 mg/kg single i.v., Female
[6] = anatabine 0.75 mg/kg single i.v., Male

Chain of nAChR α3/β4 (P32297 32-505): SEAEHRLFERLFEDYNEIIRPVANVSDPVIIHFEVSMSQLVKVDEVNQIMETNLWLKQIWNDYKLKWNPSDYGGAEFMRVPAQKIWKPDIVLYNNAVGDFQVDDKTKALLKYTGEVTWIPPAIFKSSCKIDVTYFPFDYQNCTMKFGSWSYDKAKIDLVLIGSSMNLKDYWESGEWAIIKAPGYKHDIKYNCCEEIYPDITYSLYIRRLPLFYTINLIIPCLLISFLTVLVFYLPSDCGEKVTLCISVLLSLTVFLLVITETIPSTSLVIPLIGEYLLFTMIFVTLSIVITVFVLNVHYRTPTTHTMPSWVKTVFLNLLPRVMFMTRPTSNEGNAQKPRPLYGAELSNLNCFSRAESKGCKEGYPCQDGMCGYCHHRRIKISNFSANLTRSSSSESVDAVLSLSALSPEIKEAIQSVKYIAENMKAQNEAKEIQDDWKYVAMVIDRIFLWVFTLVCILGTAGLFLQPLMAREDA
Chain of nAChR α3/β4 (P30926 22-498): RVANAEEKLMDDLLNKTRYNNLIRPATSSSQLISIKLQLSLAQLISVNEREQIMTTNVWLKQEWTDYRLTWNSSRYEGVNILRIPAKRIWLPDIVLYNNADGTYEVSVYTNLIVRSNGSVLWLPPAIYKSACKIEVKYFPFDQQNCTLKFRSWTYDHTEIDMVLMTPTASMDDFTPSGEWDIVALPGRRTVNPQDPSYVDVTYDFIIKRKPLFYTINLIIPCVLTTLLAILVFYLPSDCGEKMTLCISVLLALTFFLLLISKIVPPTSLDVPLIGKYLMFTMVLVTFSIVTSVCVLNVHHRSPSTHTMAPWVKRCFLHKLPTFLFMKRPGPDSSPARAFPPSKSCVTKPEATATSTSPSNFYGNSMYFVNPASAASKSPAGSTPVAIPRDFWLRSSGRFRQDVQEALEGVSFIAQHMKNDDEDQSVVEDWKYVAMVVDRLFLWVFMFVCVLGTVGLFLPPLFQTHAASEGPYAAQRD
T1 sequence (P17787 26-502): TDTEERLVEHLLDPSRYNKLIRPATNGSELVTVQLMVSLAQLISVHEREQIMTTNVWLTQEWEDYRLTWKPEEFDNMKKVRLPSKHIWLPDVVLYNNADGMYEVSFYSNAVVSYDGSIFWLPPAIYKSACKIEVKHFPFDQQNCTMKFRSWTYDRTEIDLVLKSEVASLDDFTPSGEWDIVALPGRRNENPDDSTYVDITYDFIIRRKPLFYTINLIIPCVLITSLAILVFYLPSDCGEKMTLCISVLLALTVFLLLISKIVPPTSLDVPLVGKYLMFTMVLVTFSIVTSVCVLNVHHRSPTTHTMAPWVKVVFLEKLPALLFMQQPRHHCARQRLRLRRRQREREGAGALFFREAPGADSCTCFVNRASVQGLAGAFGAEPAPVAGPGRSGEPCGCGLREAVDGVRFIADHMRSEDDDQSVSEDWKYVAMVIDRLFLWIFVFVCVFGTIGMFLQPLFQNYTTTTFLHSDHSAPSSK
T1 sequence (P43681 29-627): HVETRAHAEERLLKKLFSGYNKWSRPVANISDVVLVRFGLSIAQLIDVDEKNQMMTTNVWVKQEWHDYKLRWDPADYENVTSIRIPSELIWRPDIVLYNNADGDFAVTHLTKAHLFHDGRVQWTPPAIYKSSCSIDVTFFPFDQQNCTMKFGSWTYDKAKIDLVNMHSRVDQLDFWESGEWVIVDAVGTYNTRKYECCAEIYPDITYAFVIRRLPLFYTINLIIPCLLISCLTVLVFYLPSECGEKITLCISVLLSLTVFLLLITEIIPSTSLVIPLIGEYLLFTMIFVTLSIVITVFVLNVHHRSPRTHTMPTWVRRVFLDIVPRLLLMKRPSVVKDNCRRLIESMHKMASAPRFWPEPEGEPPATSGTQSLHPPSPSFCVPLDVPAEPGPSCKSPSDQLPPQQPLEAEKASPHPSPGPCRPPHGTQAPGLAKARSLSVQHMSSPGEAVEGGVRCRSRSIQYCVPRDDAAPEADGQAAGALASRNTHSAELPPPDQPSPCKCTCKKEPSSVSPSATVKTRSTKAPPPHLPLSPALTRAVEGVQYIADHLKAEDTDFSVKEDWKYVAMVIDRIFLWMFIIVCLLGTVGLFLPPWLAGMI

Compound: C1=CCC(c2cccnc2)NC1 (racemic) [Anatabine, 1,2,3,6-tetrahydro-[2,3′]bipyridinyl]
- day 1 B.W. ([1]; 0.1 mg/kg, F): 211.1 g and 201.0 g and 210.9 g
- day 2 B.W. ([1]; 0.1 mg/kg, F): 223.9 g and 215.1 g and 208.1 g and 208.8 g and 212.8 g
- day 3 B.W. ([1]; 0.1 mg/kg, F): 230.8 g and 213.2 g and 209.1 g (2×) and 219.3 g
- day 4 B.W. ([1]; 0.1 mg/kg, F): 242.3 g and 222.4 g and 220.7 g and 211.4 g and 224.7 g
- day 5 B.W. ([1]; 0.1 mg/kg, F): 246.9 g and 226.4 g and 219.3 g and 221.0 g and 229.5 g
- day 6 B.W. ([1]; 0.1 mg/kg, F): 241.1 g and 235.5 g and 220.1 g and 218.8 g and 222.9 g
- day 7 B.W. ([1]; 0.1 mg/kg, F): 246.5 g and 226.4 g and 221.7 g and 222.1 g and 232.1 g
- day 8 B.W. ([1]; 0.1 mg/kg, F): 252.0 g and 232.0 g and 227.0 g and 235.0 g
- day 9 B.W. ([1]; 0.1 mg/kg, F): 255.1 g and 239.9 g and 224.1 g and 232.0 g
- day 11 B.W. ([1]; 0.1 mg/kg, F): 274.8 g and 238.5 g and 233.9 g and 245.6 g and 245.4 g
- day 12 B.W. ([1]; 0.1 mg/kg, F): 277.2 g and 246.3 g and 242.0 g and 240.0 g and 241.6 g
- day 13 B.W. ([1]; 0.1 mg/kg, F): 271.8 g and 241 g and 242.1 g
- day 14 B.W. ([1]; 0.1 mg/kg, F): 272.7 g and 248.5 g and 243.9 g and 255.6 g and 239.2 g
- day 1 B.W. ([1]; 0.1 mg/kg, M): 233.7 g and 235.0 g and 243.5 g and 239.9 g
- day 2 B.W. ([1]; 0.1 mg/kg, M): 257.0 g and 235.1 g and 231.0 g and 253.5 g and 247.3 g
- day 3 B.W. ([1]; 0.1 mg/kg, M): 270.0 g and 251.0 g and 252.0 g and 259.4 g
- day 4 B.W. ([1]; 0.1 mg/kg, M): 286.0 g and 270.0 g and 271.2 g and 280.5 g and 273.7 g
- day 5 B.W. ([1]; 0.1 mg/kg, M): 296.5 g and 273.8 g and 278.5 g and 288.3 g and 286.6 g
- day 6 B.W. ([1]; 0.1 mg/kg, M): 301.8 g and 278 g and 284.3 g and 288.3 g and 219.6 g
- day 7 B.W. ([1]; 0.1 mg/kg, M): 318.2 g and 293.8 g and 297.6 g and 301.2 g and 300.7 g
- day 8 B.W. ([1]; 0.1 mg/kg, M): 327.0 g and 309.0 g and 310.0 g and 311.0 g
- day 9 B.W. ([1]; 0.1 mg/kg, M): 336.8 g and 303.4 g and 310.0 g and 318.7 g and 317.4 g
- day 10 B.W. ([1]; 0.1 mg/kg, M): 346.4 g and 312.9 g and 319.9 g and 322.3 g and 330.4 g
- day 11 B.W. ([1]; 0.1 mg/kg, M): 365.7 g and 331.0 g and 343.8 g and 346.9 g and 348.8 g
- day 12 B.W. ([1]; 0.1 mg/kg, M): 359.9 g and 320.0 g and 341.9 g and 347.3 g and 360.9 g
- day 13 B.W. ([1]; 0.1 mg/kg, M): 367 g and 331 g and 349 g and 334.4 g and 360 g
- day 14 B.W. ([1]; 0.1 mg/kg, M): 391.0 g and 347.3 g and 368.8 g and 353.5 g and 373.8 g
- day 1 B.W. ([1]; 0.75 mg/kg, F): 208.9 g and 207.7 g and 219.1 g and 196.7 g and 199.5 g
- day 2 B.W. ([1]; 0.75 mg/kg, F): 206.2 g and 210.0 g (2×) and 225.5 g and 210.1 g
- day 3 B.W. ([1]; 0.75 mg/kg, F): 214.0 g (2×) and 224.8 g and 213.6 g and 210.8 g
- day 6 B.W. ([1]; 0.75 mg/kg, F): 224.4 g and 217.8 g and 236.2 g and 214.7 g and 221.4 g
- day 7 B.W. ([1]; 0.75 mg/kg, F): 227.4 g and 243.2 g and 222 g and 219.3 g
- day 8 B.W. ([1]; 0.75 mg/kg, F): 232.0 g and 220.0 g and 243.0 g and 224.6 g and 227.4 g
- day 9 B.W. ([1]; 0.75 mg/kg, F): 237.3 g and 226.3 g and 247.6 g and 229.1 g and 230.6 g
- day 10 B.W. ([1]; 0.75 mg/kg, F): 239.3 g and 232.2 g and 252.7 g and 230.9 g and 233.5 g
- day 11 B.W. ([1]; 0.75 mg/kg, F): 250.9 g and 239.1 g and 268.8 g and 240.9 g and 244.1 g
- day 12 B.W. ([1]; 0.75 mg/kg, F): 249.7 g and 233.5 g and 259.6 g and 241.6 g and 247.9 g
- day 13 B.W. ([1]; 0.75 mg/kg, F): 248 g and 237.2 g and 268 g and 234 g and 243 g
- day 14 B.W. ([1]; 0.75 mg/kg, F): 251.5 g and 242.8 g and 274.1 g and 250.7 g and 250.6 g
- day 4 B.W. ([1]; 0.75 mg/kg, F, second one headed day 4): 225.4 g and 219.3 g and 237.1 g and 220.8 g and 227.6 g
- day 4 B.W. ([1]; 0.75 mg/kg, F, day 4): 230.0 g and 214.7 g and 232.4 g and 222.1 g and 220.0 g
- day 1 B.W. ([1]; 0.75 mg/kg, M): 242.7 g and 251.4 g and 231.9 g and 226.8 g and 239.8 g
- day 2 B.W. ([1]; 0.75 mg/kg, M): 259.7 g and 240.0 g and 232.1 g and 247.2 g
- day 3 B.W. ([1]; 0.75 mg/kg, M): 261.1 g and 269.1 g and 252.0 g and 243.0 g and 256.1 g
- day 6 B.W. ([1]; 0.75 mg/kg, M): 282.4 g and 287.6 g and 268.2 g (2×) and 281.3 g
- day 7 B.W. ([1]; 0.75 mg/kg, M): 294.5 g and 302.9 g and 281.8 g and 274.1 g and 287.1 g
- day 8 B.W. ([1]; 0.75 mg/kg, M): 300.0 g and 310.6 g and 293.4 g and 284.2 g
- day 9 B.W. ([1]; 0.75 mg/kg, M): 307.6 g and 319.8 g and 298.8 g and 296.2 g and 298.5 g
- day 10 B.W. ([1]; 0.75 mg/kg, M): 317.2 g and 331.9 g and 307.9 g and 303.8 g and 306.8 g
- day 11 B.W. ([1]; 0.75 mg/kg, M): 334.6 g and 339.8 g and 329.4 g and 316.1 g and 321.9 g
- day 12 B.W. ([1]; 0.75 mg/kg, M): 327.6 g and 325.4 g and 322.5 g and 324.8 g and 331.1 g
- day 13 B.W. ([1]; 0.75 mg/kg, M): 335.6 g and 338 g and 330 g and 326 g (2×)
- day 14 B.W. ([1]; 0.75 mg/kg, M): 351.9 g and 357.9 g and 345.1 g and 339 g and 335.9 g
- day 4 B.W. ([1]; 0.75 mg/kg, M, second one headed day 4): 282.3 g and 287.6 g and 269.9 g and 262.0 g and 275.7 g
- day 4 B.W. ([1]; 0.75 mg/kg, M, day 4): 275.7 g and 286.0 g and 268.0 g and 256.3 g and 271.2 g
- Mean weigth increase by day 14 ([1]; anatabine 0.1 mg/kg single i.v., Female): 39.0 g
- Mean food consumption/day [1, 4]: 31.0 g
- Mean weigth increase by day 14 [1, 4]: 132.5 g
- Mean food consumption/day [1, 5]: 19.7 g
- Mean weigth increase by day 14 [1, 5]: 43.1 g
- Mean food consumption/day [1, 6]: 27.8 g
- Mean weigth increase by day 14 [1, 6]: 111.6 g
- agonist activity [2]: displays full agonist activity
- potentiation [3]: Neither nicotine nor anatabine potentiated the activity
